Measured values reported in patent publication US6399574B1 (priority 1997, dated 2002).
Several values for one entry are separate records, joined by “and”; a condition that tells them apart may be missing. Equal entries are not always repeated.

Experiments:
[1] = tested on: Frings audiogenic seizure susceptible mice; settings: mouse, in vivo
[2] = tested on: Frings audiogenic seizure-susceptible mice; settings: mouse, in vivo

| SMILES | animals protected [1] | toxicity (rotorod) [2] |
| --- | --- | --- |
| NC(=O)OCC(COC(N)=O)c1ccccc1 [Felbamate, reference compound] | 5/8 protected and 4/8 protected | no marked |
| CC1(C)O[C@@H]2[C@@H](CO[C@@]3(COS(N)(=O)=O)OC(C)(C)O[C@@H]23)O1 [Topiramate, reference compound] |  | no marked |
